# Assay results from publication PMC7017353, “Delineating the Molecular Basis of the Calmodulin–bMunc13-2 Interaction by Cross-Linking/Mass Spectrometry—Evidence for a Novel CaM Binding Motif in bMunc13-2” (Cells, 2020).
# Where a SMILES comes first, the peptide text is derived from it.
# Tested on: recombinant CaM
# Test: Photoaffinity labeling (PAL)-based competition assay
# Format: binding
# Details: photoprobe segment-C-Bpa 5 µM, CaM 5 µM, 200 µM Ca2+, SDS-PAGE and MALDI-TOF-MS; for molar excess of competitor for complete suppression of photoadduct formation (full displacement of photoprobe): competitor 0–250 µM, 2 h RT; for suppression of photoadduct formation (in words): competitor up to 50-fold molar excess
# Procedure: Photoreactive peptides were synthesized by Fmoc chemistry using the amino acid derivative Fmoc-para-benzoylphenylalanine (Bpa, Novabiochem). Photoaffinity labeling (PAL)-based competition experiments with recombinant CaM were performed and analyzed as described previously. Briefly, CaM (5 µM) and segment-C-Bpa (5 µM) or segment-CS-Bpa (5 µM) were incubated in 50 mM HEPES (pH 7.2), 150 mM KCl, 5 mM DTT for 2 h at RT in the dark with (200 µM Ca^2+) or without (2 mM EGTA) calcium, and in the presence of increasing concentrations (0–250 μM) of competitor peptides. Following UV irradiation, photoadduct formation was visualized and quantified by SDS-PAGE and linear matrix-assisted laser desorption/ionization–time-of-flight–mass spectrometry (MALDI-TOF-MS).
Compound,molar excess of competitor for complete suppression of photoadduct formation (full displacement of photoprobe),suppression of photoadduct formation (in words)
CC[C@H](C)[C@H](NC(=O)[C@H](CS)NC(=O)[C@H](CCCCN)NC(=O)[C@H](CC(N)=O)NC(=O)[C@H](CC(C)C)NC(=O)[C@H](Cc1ccc(O)cc1)NC(=O)[C@@H](NC(=O)[C@@H](NC(=O)[C@H](CCC(=O)O)NC(=O)[C@H](C)NC(=O)[C@H](CS)NC(=O)[C@H](CC(=O)O)NC(=O)[C@H](CCC(N)=O)NC(=O)[C@H](CCC(=O)O)NC(=O)[C@H](CC(C)C)NC(=O)[C@H](CO)NC(=O)[C@H](CC(C)C)NC(=O)[C@H](CCCCN)NC(C)=O)[C@@H](C)O)[C@@H](C)CC)C(=O)N[C@@H](CC(N)=O)C(=O)N[C@@H](CC(N)=O)C(=O)N[C@@H](Cc1ccccc1)C(=O)N[C@@H](CCCCN)C(=O)N[C@@H](CC(N)=O)C(=O)N[C@H](C(=O)N[C@@H](CC(C)C)C(=O)N[C@@H](CCCNC(=N)N)C(=O)N[C@@H](CCC(=O)O)C(=O)N[C@@H](CCCCN)C(=O)N[C@@H](CCCNC(=N)N)C(=O)N[C@@H](CC(C)C)C(=O)N[C@@H](CCCNC(=N)N)C(=O)N[C@@H](CCC(N)=O)C(=O)N[C@@H](CCCCN)C(=O)N[C@@H](CCCCN)C(=O)N[C@@H](CC(C)C)C(=O)N[C@@H](CC(C)C)C(=O)N[C@@H](CCC(N)=O)C(=O)N[C@@H](CCC(=O)O)C(=O)N[C@@H](CC(C)C)C(=O)N[C@H](C(N)=O)C(C)C)C(C)C [Segment V709D] (Ac-KLSLEQDCAETIYLNKCINNFKNVLREKRLRQKKLLQELV-NH2; N-terminus and C-terminus assumed),> 50 fold molar excess,
719CINNFKNVLREKRLRQKKLLQELVQTASHLSVED742 [segment-CL],> 50 fold molar excess,could not suppress photoadduct formation
719 CINNFKNVLREKRLRQKKLLQELV 742 [segment-CS],> 50 fold molar excess,could not suppress photoadduct formation
"703KLSLEQVCAETIYLNKCINNDKNVLREKRLRQKKLLQELV742 [Segment F723D, segment-C variant with F723 exchanged to aspartic acid]",,not able to displace segment-C-Bpa at all
